Reference: patent US7531550B2, “Pseudobase benzo[c]phenanthridines with improved efficacy, stability, and safety” (Yale University, priority 2006, dated 2009)
One block for each molecule: values may come before it.

Tests used:
Assay type in all cases: physicochemical
[1] = Conversion of chelerythrine pseudobases to parent chelerythrine in simulated gastric fluid (SGF); details: for conversion to chelerythrine chloride (1H NMR analysis): 1 mg in 5 mL, 37° C.
Description: Simulated Gastric Fluid (SGF): Sodium chloride (2 gm), 750 mL distilled water, and 7.0 mL of concentrated hydrochloric acid are added into a 1000 ml volumetric flask. The flask is swirled to mix and the volume brought to 1000 mL with distilled water. The pH should be approx. 1.2.
(§1) General conversion procedure: The pseudobases are placed in SGF or SIF at about 0.2 mg/mL concentration and placed in 37° C. bath with gentle stirring. For those pseudobases which have low aqueous solubility, up to 20% co-solvent such as methanol is added to facilitate dissolution. The progress of the conversion is followed by visual observation (color change) and ^1H NMR analysis.
(§2) 6-tert-Butoxy-5,6-dihydrochelerythrine (1 mg) is placed in 5 mL of simulated gastric fluid in a glass vial. The vial is gently placed in 37° C. bath with gentle stirring. The solid pseudobase gradually dissolves to give a yellow solution which is the characteristic color of the parent chelerythrine chloride.
as §2, with “6-Diethyl-(5,6-dihydrochelerythrine)-malonate” for “6-tert-Butoxy-5,6-dihydrochelerythrine”, “vial containing 10% methanol.” for “vial.”

[2] = Solubility of the chelerythrine ether dimer
Excerpt: (§3) The quaternary nitrogen imparts inherent chemical reactivity into these alkaloids. Nucleophiles can readily add to the adjacent carbon to create a neutral pseudobase. Water forms an unstable adduct with chelerythrine that can be seen in NMR studies. Additionally, 6-methoxy-5,6-dihydrochelerytherine and 6-ethoxy-5,6-dihydrochelerytherine (Artarine) have been reported as byproducts formed during the isolation of chelerythrine from plants utilizing methanol and ethanol extractions. The ability of this class of compounds to form pseudobases which can convert back to the quartenary […] is dependent on the solubility of the resulting pseudobase in biological media, the basicity of the leaving group adjacent to the position to become quartenary and the aromatic substitution pattern and nature of substituting agents (electron donating or withdrawing). Sanguinarine forms the hydroxyl psuedobase in pH 7.4 water to a higher extent than Chelerythrine. Under basic aqueous conditions, the hydroxypsuedobase of Cheleryturine will dimerize forming an ether bridge between two Chelerythrine molecules attached to the carbon adjacent to the ring nitrogen.

[3] = Conversion to chelerythrine in 0.1N HCL with 30% methanol; details: then 30% methanol added
Excerpt: as §3

[4] = Conversion of chelerythrine pseudobases to parent chelerythrine in simulated intestinal fluid (SIF); details: 1 mg in 5 mL, 37° C., after 4 h
Description: Simulated Intestinal Fluid (SIF): Monobasic potassium phosphate (6.8 gm) and sodium hydroxide (0.616 gm) are added into 250 ml of distilled water in a 1000 ml volumetric flask and swirled until dissolved. 700 ml distilled water is added and the pH checked. The pH is adjusted to pH 6.8+/−0.1 by adding either 0.2N sodium hydroxide or 0.2N hydrochloric acid and the volume is brought to 1000 ml.
as §1
as §2, with “N-(isopropyl)-5,6-dihydrochelerythrine-6-amine” for “6-tert-Butoxy-5,6-dihydrochelerythrine”, “intestinal” for “gastric”, “dissolved” for “dissolves”

conversion to Chelerythrine in simulated gastric fluids ([1]; simulated gastric fluids): does not convert readily
solubility [2]: quite insoluble
conversion to Chelerythrine [3]: occurs rapidly
SMILES: COc1ccc2c(c1OC)C(OC1c3c(ccc(OC)c3OC)-c3ccc4cc5c(cc4c3N1C)OCO5)N(C)c1c-2ccc2cc3c(cc12)OCO3 (stereo not drawn) [compound 34, 6-(5,6-dihydrochelerytherin-6-yloxy)-5,6-dihydrochelerytherine]

SMILES: COc1ccc2c(c1OC)C(OC(C)(C)C)N(C)c1c-2ccc2cc3c(cc12)OCO3 (stereo not drawn) [compound 37, 6-tert-butoxy-5,6-dihydrochelerytherine]
conversion to chelerythrine chloride (1H NMR analysis) ([1]; simulated gastric fluid, after 2 h): complete conversion

conversion to chelerythrine chloride (1H NMR analysis) [4]: complete conversion
SMILES: COc1ccc2c(c1OC)C(NC(C)C)N(C)c1c-2ccc2cc3c(cc12)OCO3 (stereo not drawn) [compound 43, N-(isopropyl)-5,6-dihydrochelerythrine-6-amine]

conversion to chelerythrine chloride (1H NMR analysis) ([1]; simulated gastric fluid containing 10% methanol, after 16 h): complete conversion
SMILES: CCOC(=O)C(C(=O)OCC)C1c2c(ccc(OC)c2OC)-c2ccc3cc4c(cc3c2N1C)OCO4 (stereo not drawn) [compound 50, 6-diethyl-(5,6-dihydrochelerythrine)-malonate]
